Series [1] can be described thus: L-cysteine adduction kinetics in vitro (HPLC). It is filed as physicochemical. The conditions noted are these: pH 7.4, 37° C.; for NMBA peak area / [NMBA] remaining / ln* = ln (([NMBA]t[L-cysteine]t=0)/([NMBA]t=0[L-cysteine]t)): CW 011 1000 μg/mL + 1.05 equiv. L-cysteine. The method, then: In a second experiment, to evaluate degradation in the presence of L-cysteine, buffered solutions (pH 7.4) of gantacurium, CW 002 or CW 011 were freshly prepared at 37° C. to give experimental concentrations of 1000 μg/mL (CW 002 and CW 011) and 200 μg/mL (gantacurium), after addition to and mixing with a 5% Molar excess of L-cysteine at time=0.
The concentration of neuromuscular blocking agent/parent compound remaining at specified time points after mixing was determined by high performance liquid chromatography. The concentration of blocking agent at each time point was determined from a separately prepared reaction mixture, due to the rapid rate of L-cysteine adduction. The reaction rate constant for the second order reaction of each neuromuscular blockade agent (NMBA) with L-cysteine was derived by plotting the natural log of ([NMBA]t[L-cysteine]t=0/[NMBA]t=0[L-cysteine]t) vs. time.
Concentrations selected were 200, 100 and 50 μg/ml which are approximately proportional to the relative potencies (ED 95) of gantacurium, CW 002 and CW 011 respectively. A degradation (adduction) pathway in the presence of L-cysteine for each of the three compounds was proposed.
The reaction of L-cysteine with CW 002, CW 011 or gantacurium is first order in the case of both the neuromuscular blockade agent (NMBA) and L-cysteine, represented by the rate equation (1). d[Adduct]/dt=−d[NMBA]/dt=ka[NMBA][L-cysteine] (1)
Calculation of the L-cysteine adduction half time requires experimental derivation of the reaction rate constant, ka, for each compound. The initial concentrations of NMBA and L-cysteine are unequal in the experiments conducted for this study, thus integration of equation 1 gives equation 2, where [NMBA]0 is the NMBA concentration at time equals 0 and [NMBA]t is the NMBA concentration at a time point, t.
[formula] A plot of the ln(([NMBA]t [L-cysteine]0)/([NMBA]0 [L-cysteine]t)) versus time (ln* vs. t) gives a line, with slope equal to ka([NMBA]0−[L-cysteine]0). An adduction reaction half time can be calculated by solving for ka to be used in equation 3.
NMBA standard solutions were prepared by a method similar to that used to prepare hydrolysis standards. The standards were prepared at 1000 μg/mL for CW 002 and CW 011 and 200 μg/mL for gantacurium.
Solutions used for determination of NMBA concentration at the reported times for CW 002 and CW 011 were prepared as follows: L-cysteine hydrochloride monohydrate was charged to a volumetric flask in de-ionized water. A 5 mL aliquot of the L-cysteine solution (1.05 equiv. L-cysteine with respect to NMBA) was transferred by volumetric pipette to a flask held at 37.0±0.3° C. CW 002 or CW 011 was then charged to a separate 25 mL volumetric flask and diluted to volume with pH 7.4 phosphate buffer at 37.0° C. The NMBA solution was then immediately transferred to the flask containing L-cysteine to give an initial NMBA concentration of 1000 μg/mL. Solutions used for determination of gantacurium concentration versus time were prepared in a similar manner to give an initial concentration of 200 μg/mL. T=0 was defined as the time of addition of NMBA solution to L-cysteine solution. The times listed in the results table show the point of HPLC sample injection following mixing of L-cysteine and NMBA at time=0 (Table 1, below).
Rate constants were calculated using equation (3) and the slope of the trend line derived from each data set. The strong linear correlation of the data within each set supports the use of second order kinetics for analysis of the cysteine adduction reactions.
Reaction half times were calculated using equation 4 and the experimentally determined rate constants. The initial NMBA concentrations were chosen to reflect the relative potency observed in vivo.

The subject of series [2] is twitch of the extensor digitorum. The experiment in a line: Reversal of neuromuscular blockade by L-cysteine or neostigmine in anesthetized rhesus monkeys. It is filed as in vivo, rhesus monkeys (Macaca mulatta). The method, then:
A control dose of 0.15 mg/kg CW 002 was allowed to recover spontaneously to TOF 110-120%. A second dose was given 60 minutes later, followed one minute afterwards by either neostigmine (0.05 mg/kg+atropine 0.05 mg/kg) or L-cysteine (10, 20, 30 or 50 mg/kg). Total duration and 5-95% recovery intervals were compared during spontaneous recovery vs. antagonism by L-cysteine or reversal by neostigmine.
This series of paired comparisons was designed to generate dose-response data comparing spontaneous recovery of high doses of CW 011 (from 4 to 64× ED95) versus immediate antagonism at +1 min by an optimal dose of L-cysteine (50 mg/kg), previously determined during studies of immediate antagonism of CW 002. This experiment was done to explore the limits of chemical antagonism by L-cysteine of these olefinic diester neuromuscular blocking drugs, using CW 011 as a typical example with an intermediate duration of action. Five groups of animals first received a control dose of CW 011 at 4, 8, 16, 32 or 64× ED 95 (0.1 to 1.6 mg/kg). Sixty minutes after spontaneous recovery of the control dose to TOF 110-120%, the same dose was repeated, followed 1 min later by L-cysteine (50 mg/kg). Total duration of action and 5-95% recovery interval were compared during spontaneous recovery and following antagonism by L-cysteine
The reversal of neuromuscular blockade by cysteine (5-50 mg/kg i.v.) was studied. Reversal was tested as follows: full paralysis was induced by injection of a dose of approximately 2-6× ED 95 of the compound in question. After spontaneous recovery of this dose, a second identical dose was given 15-30 min later. Cysteine was then given at +1 min after injection of the neuromuscular blocking drug at a point where no twitch was apparent (“immediate reversal”) or at the beginning of recovery from neuromuscular blockade at two percent twitch height (“classical reversal”). Comparisons were made among compounds with respect to rapidity and ease of cysteine reversal, by comparing 5-95% recovery times, and total durations of action (injection to 95% twitch recovery). Spontaneous recovery was compared with cysteine-accelerated recovery. […]

Structures are written as SMILES.

For the molecule `COc1ccc(C[C@@H]2c3cc(OC)c(OC)cc3CC[N@@+]2(C)CCCOC(=O)/C=C\C(=O)OCCC[N@+]2(C)CCc3cc(OC)c(OC)cc3[C@H]2Cc2cc(OC)c(OC)c(OC)c2)cc1OC` [CW 011], the NMBA peak area in series [1] (Trial 1, 123 Sec) was 2587.0 mAU's; in series [1] (Trial 2, 132 Sec), 2500.5 mAU's; in series [1] (Trial 3, 143 Sec), 2293.0 mAU's; in series [1] (Trial 4, 182 Sec), 1765.4 mAU's. Moreover, the “[NMBA] remaining” value in series [1] (Trial 1, 123 Sec) is 228 µM; in series [1] (Trial 2, 132 Sec), 221 µM; in series [1] (Trial 3, 143 Sec), 202 µM; in series [1] (Trial 4, 182 Sec), 155 µM. Besides, the “ln* = ln (([NMBA]t[L-cysteine]t=0)/([NMBA]t=0[L-cysteine]t))” value was −0.248 in series [1] (Trial 1, 123 Sec); −0.256 in series [1] (Trial 2, 132 Sec); −0.284 in series [1] (Trial 3, 143 Sec); −0.378 in series [1] (Trial 4, 182 Sec). The “Plot Slope (ln* vs. time)” value in series [1] (L-cysteine adduction, data of Table 1) is given as −0.0023. In addition, the “ka, second order rate constant of L-cysteine adduction” value in series [1] amounted to 24.7 M⁻¹ s⁻¹. Also, in series [1] (pH 7.4 phosphate buffer with L-cysteine, calculated at [NMBA]0 0.0000493 M (50 μg/ml), read-out: L-cysteine adduction reaction half time t1/2), the half-life at 50 μg/ml is 13.7 min. Besides, the “time to reversal of blockade with cysteine (FIG. 2B)” value in series [2] (CW 011, all cysteine concentrations tested (10 mg/kg to 50 mg/kg as worded elsewhere in the source)) was “less than 6 minutes”. The “time from cysteine administration to beginning of reversal (FIG. 2B)” value in series [2] (CW 011, higher cysteine doses) was 2 to 3 min. Moreover, in series [2] (CW 011, no reversal agent), the “time to spontaneous reversal of blockade (FIG. 2)” value is recorded as “more than 12 minutes”. The “reversibility of neuromuscular blockade by thiol compounds” value in series [2] (cysteine (L or D) or glutathione) is given as “reversible”. Besides, the “effect of neostigmine given immediately after the blocking drug” value in series [2] (immediate reversal) is reported as “ineffective”. For the same molecule, the “spontaneous reversal rate (FIG. 2A)” value in series [2] (increasing doses of CW 011 (4 to 64× ED95), no reversal agent) is recorded as “decreases with increasing CW 011 dose”. Also, the “classical antagonism of neuromuscular blockade by neostigmine” value in series [2] (neostigmine given at beginning of spontaneous recovery, e.g. at 2% twitch height) was “showed antagonism”.

(Values after patent publication US8592451B2, “Reversible nondepolarizing neuromuscular blockade agents and methods for their use” (Cornell University, priority 2009, dated 2013).)
